In the NIST ThermoML archive (doi:10.1016/j.jct.2016.05.007):
Several values for one entry are separate records, joined by “and”; a condition that tells them apart may be missing. Identical values can stand only once. ± gives the expanded uncertainty stated by the source.

Experiments:
[1] = for Triple point temperature: DSC
[2] = Molar enthalpy of transition or fusion; conditions: DSC
[3] = molar enthalpy of vaporization or sublimation; conditions: 298.15 K; Crystal 2; Static calorimetry

CC(C)(C)c1ccc2c(c1)Cc1cc(C(C)(C)C)ccc1-2 [2,7-di-tert-butylfluorene]
vapor or sublimation pressure ([1]; 349.14 K, Crystal 2, Calculated from knudsen effusion weight loss): 0.000106 ± 2e-05 kPa and 0.000105 ± 2e-05 kPa
vapor or sublimation pressure ([1]; 351.14 K, Crystal 2, Calculated from knudsen effusion weight loss): 0.000136 ± 2.1e-05 kPa and 0.000135 ± 2.1e-05 kPa and 0.000132 ± 2.1e-05 kPa
vapor or sublimation pressure ([1]; 353.3 K, Crystal 2, Calculated from knudsen effusion weight loss): 0.000169 ± 2.1e-05 kPa and 0.000171 ± 2.1e-05 kPa
vapor or sublimation pressure ([1]; 355.28 K, Crystal 2, Calculated from knudsen effusion weight loss): 0.000213 ± 2.1e-05 kPa and 0.000215 ± 2.1e-05 kPa and 0.000217 ± 2.1e-05 kPa
vapor or sublimation pressure ([1]; 357.2 K, Crystal 2, Calculated from knudsen effusion weight loss): 0.000271 ± 2.2e-05 kPa and 0.000267 ± 2.2e-05 kPa and 0.000261 ± 2.2e-05 kPa
vapor or sublimation pressure ([1]; 359.19 K, Crystal 2, Calculated from knudsen effusion weight loss): 0.000321 ± 2.3e-05 kPa and 0.000336 ± 2.3e-05 kPa and 0.00033 ± 2.3e-05 kPa
vapor or sublimation pressure ([1]; 361.14 K, Crystal 2, Calculated from knudsen effusion weight loss): 0.000408 ± 2.5e-05 kPa and 0.000409 ± 2.5e-05 kPa
vapor or sublimation pressure ([1]; 363.27 K, Crystal 2, Calculated from knudsen effusion weight loss): 0.000509 ± 2.7e-05 kPa and 0.000507 ± 2.7e-05 kPa and 0.000514 ± 2.7e-05 kPa
vapor or sublimation pressure ([1]; 368.2 K, Crystal 1, Calculated from knudsen effusion weight loss): 0.000805 ± 3.5e-05 kPa and 0.000816 ± 3.5e-05 kPa and 0.000828 ± 3.5e-05 kPa
vapor or sublimation pressure ([1]; 368.55 K, Crystal 1, Closed cell (Static) method): 0.000873 ± 2.4e-05 kPa
vapor or sublimation pressure ([1]; 369.13 K, Crystal 1, Calculated from knudsen effusion weight loss): 0.000886 ± 3.7e-05 kPa and 0.000888 ± 3.7e-05 kPa and 0.000889 ± 3.7e-05 kPa
vapor or sublimation pressure ([1]; 370.26 K, Crystal 1, Calculated from knudsen effusion weight loss): 0.000975 ± 4e-05 kPa and 0.000979 ± 4e-05 kPa
vapor or sublimation pressure ([1]; 370.54 K, Crystal 1, Closed cell (Static) method): 0.001055 ± 2.5e-05 kPa
vapor or sublimation pressure ([1]; 371.21 K, Crystal 1, Calculated from knudsen effusion weight loss): 0.001079 ± 8.5e-05 kPa and 0.001082 ± 8.5e-05 kPa and 0.00107 ± 8.4e-05 kPa
vapor or sublimation pressure ([1]; 372.21 K, Crystal 1, Calculated from knudsen effusion weight loss): 0.00118 ± 9.5e-05 kPa and 0.001178 ± 9.5e-05 kPa
vapor or sublimation pressure ([1]; 372.5 K, Crystal 1, Closed cell (Static) method): 0.001246 ± 2.6e-05 kPa
vapor or sublimation pressure ([1]; 374.5 K, Crystal 1, Closed cell (Static) method): 0.001492 ± 2.7e-05 kPa
vapor or sublimation pressure ([1]; 376.45 K, Crystal 1, Closed cell (Static) method): 0.001778 ± 2.9e-05 kPa
vapor or sublimation pressure ([1]; 378.41 K, Crystal 1, Closed cell (Static) method): 0.002106 ± 3.1e-05 kPa
vapor or sublimation pressure ([1]; 380.4 K, Crystal 1, Closed cell (Static) method): 0.002524 ± 3.3e-05 kPa
vapor or sublimation pressure ([1]; 382.38 K, Crystal 1, Closed cell (Static) method): 0.002965 ± 3.5e-05 kPa
vapor or sublimation pressure ([1]; 384.34 K, Closed cell (Static) method, Liquid): 0.003946 ± 4e-05 kPa
vapor or sublimation pressure ([1]; 384.34 K, Crystal 1, Closed cell (Static) method): 0.003492 ± 3.7e-05 kPa
vapor or sublimation pressure ([1]; 386.3 K, Crystal 1, Closed cell (Static) method): 0.004126 ± 4.1e-05 kPa
vapor or sublimation pressure ([1]; 386.32 K, Closed cell (Static) method, Liquid): 0.004548 ± 4.3e-05 kPa
vapor or sublimation pressure ([1]; 388.27 K, Crystal 1, Closed cell (Static) method): 0.004862 ± 4.4e-05 kPa
vapor or sublimation pressure ([1]; 388.28 K, Closed cell (Static) method, Liquid): 0.005217 ± 4.6e-05 kPa
vapor or sublimation pressure ([1]; 390.24 K, Crystal 1, Closed cell (Static) method): 0.00567 ± 4.8e-05 kPa
vapor or sublimation pressure ([1]; 390.28 K, Closed cell (Static) method, Liquid): 0.005976 ± 5e-05 kPa
vapor or sublimation pressure ([1]; 392.22 K, Closed cell (Static) method, Liquid): 0.006859 ± 5.4e-05 kPa
vapor or sublimation pressure ([1]; 394.2 K, Closed cell (Static) method, Liquid): 0.007843 ± 5.9e-05 kPa
vapor or sublimation pressure ([1]; 396.17 K, Closed cell (Static) method, Liquid): 0.008987 ± 6.5e-05 kPa
vapor or sublimation pressure ([1]; 398.15 K, Closed cell (Static) method, Liquid): 0.01026 ± 7.1e-05 kPa
vapor or sublimation pressure ([1]; 400.05 K, Closed cell (Static) method, Liquid): 0.01164 ± 7.8e-05 kPa
vapor or sublimation pressure ([1]; 402.07 K, Closed cell (Static) method, Liquid): 0.01327 ± 8.6e-05 kPa
vapor or sublimation pressure ([1]; 404.04 K, Closed cell (Static) method, Liquid): 0.01508 ± 9.5e-05 kPa
Triple point temperature ([1]; Crystal 1): 395.9 ± 0.8 K
Triple point temperature ([1]; Crystal 2): 367 ± 0.8 K
Molar enthalpy of transition or fusion ([2]; Crystal 1): 3.73 ± 0.0956 kcal/mol
Molar enthalpy of transition or fusion ([2]; Crystal 2): 2.39 ± 0.0645 kcal/mol
molar enthalpy [3]: 28.66 ± 0.239 kcal/mol
